From patent US8497296B2, “N,N′-hydrazino-bis-isatin derivatives with selective activity against multidrug-resistant cancer cells” (King Saud University, priority 2011, dated 2013)

Tests used:
[1] = test system: KB-3-1 cells; assay: MTT cytotoxicity assay, parental KB-3-1 cell line; format: cell-based; details: Homo sapiens, parental KB-3-1 cells (HeLa derivative), 72 h incubation, at least three experiments, read-out: IC50 KB3-1
Procedure: (§1) The cytotoxicity of the prepared compounds was evaluated at Laboratory of Cell Biology, National Cancer Institute, National Institutes of Health, Bethesda, Md. 20892, Group in Biomolecular, USA, using the following protocol:
KB-3-1 cells (a HeLa deriviative) and its MDR derivative (KB-V1) were grown as previously described. Cell survival was measured by the MTT (3-(4,5-dimethylthiazol-2-yl)-2,5-diphenyltetrazolium bromide) assay as previously described. Briefly, cells were seeded in 100 μL of growth medium at a density of 5000 cells/well in 96-well plates and allowed to establish for 24 h, at which time serially diluted drugs were added in an additional 100 μL of growth medium. Cells were then incubated for 72 h at 37° C. in humidified 5% CO2, at which time the growth medium was drawn and replaced with MTT in IMDM growth medium and incubated for 4 h. The MTT solution was then drawn from the wells, and 100 μL of acidified ethanol solution was added to each well and after 15 min absorption at 560 nm was measured. […] The effect of treatment on cell viability was determined using the luminescent Cell Titer Glo Assay (Promega).

[2] = test system: KB-V1 cells; assay: MTT cytotoxicity assay, P-glycoprotein-expressing MDR cell line KB-V1; format: cell-based; details: for IC50: Homo sapiens, P-glycoprotein-expressing MDR KB-V1 cells, 72 h incubation, MTT, at least three experiments, read-out: IC50 KBV1; for RR (MDR1 selectivity): ratio of IC50 against KB-3-1 cells divided by IC50 against KB-V1 cells, >1 = MDR1-selective
Procedure: as §1
KB-3-1 cells (a HeLa deriviative) and its MDR derivative (KB-V1) were grown as previously described. Cell survival was measured by the MTT (3-(4,5-dimethylthiazol-2-yl)-2,5-diphenyltetrazolium bromide) assay as previously described. Briefly, cells were seeded in 100 μL of growth medium at a density of 5000 cells/well in 96-well plates and allowed to establish for 24 h, at which time serially diluted drugs were added in an additional 100 μL of growth medium. Cells were then incubated for 72 h at 37° C. in humidified 5% CO2, at which time the growth medium was drawn and replaced with MTT in IMDM growth medium and incubated for 4 h. The MTT solution was then drawn from the wells, and 100 μL of acidified ethanol solution was added to each well and after 15 min absorption at 560 nm was measured. […]

**Q.** How did the IC50 [1] turn out when N/N=C1\C(=O)Nc2ccccc21 [Compound 2a, (Z)-3-Hydrazonoindolin-2-one] was run?
**A.** Its IC50 is over 500 µM.

**Q.** And the IC50 [2]?
**A.** The IC50 was 125 ± 39.4 µM.

**Q.** For O=C1Nc2ccccc2/C1=N/N=C1\C(=O)Nc2ccccc21 [Compound 3, (3Z,3′Z)-3,3′-(Hydrazine-1,2-diylidene)diindolin-2-one], which IC50 [1] is on record?
**A.** Its IC50 is 17.1 ± 0.83 µM.

**Q.** What about the IC50 [2] of the same molecule?
**A.** The IC50 was 17.3 ± 1.59 µM.

**Q.** What about the “RR (MDR1 selectivity)” value [2] of the same molecule?
**A.** The value was 0.99.

**Q.** How did the IC50 [1] turn out when O=C1Nc2ccccc2/C1=N/N=C1\C(=O)N(c2ccccc2)c2ccccc21 [Compound 4, (Z)-3-((Z)-(2-Oxoindolin-3-ylidene)hydrazono)-1-phenylindolin-2-one] was run?
**A.** Its IC50 is 8.7 ± 2.21 µM.

**Q.** And the IC50 [2]?
**A.** The IC50 was 10.8 ± 1.1 µM.

**Q.** And the “RR (MDR1 selectivity)” value [2]?
**A.** The value was 0.81.

**Q.** With O=C1Nc2ccccc2/C1=N/N=C1\C(=O)Nc2ccc(F)cc21 [Compound 5, (Z)-5-Fluoro-3-((Z)-(2-oxoindolin-3-ylidene)hydrazono)indolin-2-one] as the molecule, how does the IC50 [1] read?
**A.** Its IC50 is 28.1 ± 2.48 µM.

**Q.** What about the IC50 [2] of the same molecule?
**A.** Its IC50 is 25.3 ± 10.1 µM.

**Q.** And the “RR (MDR1 selectivity)” value [2]?
**A.** The value was 1.11.

**Q.** Which IC50 [1] does the source give for O=C1Nc2ccccc2/C1=N/N=C1\C(=O)Nc2ccc(Cl)cc21 [Compound 6, (Z)-5-Chloro-3-((Z)-(2-oxoindolin-3-ylidene)hydrazono)indolin-2-one] here?
**A.** Its IC50 is 9.67 ± 1.74 µM.

**Q.** What about the IC50 [2] of the same molecule?
**A.** The IC50 was 7.72 ± 0.5 µM.

**Q.** And the “RR (MDR1 selectivity)” value [2]?
**A.** Its value is 1.25.

**Q.** O=C1Nc2ccccc2/C1=N/N=C1\C(=O)Nc2ccc(Br)cc21 [Compound 7, (Z)-5-Bromo-3-((Z)-(2-oxoindolin-3-ylidene)hydrazono)indolin-2-one] was tested. Which IC50 [1] did it give?
**A.** The IC50 was 9.71 ± 0.31 µM.

**Q.** What about the IC50 [2] of the same molecule?
**A.** The IC50 was 7.58 ± 1.43 µM.

**Q.** What about the “RR (MDR1 selectivity)” value [2] of the same molecule?
**A.** Its value is 1.28.

**Q.** How did the IC50 [1] turn out when Cc1ccc2c(c1)/C(=N/N=C1\C(=O)Nc3ccccc31)C(=O)N2 [Compound 8, (Z)-5-Methyl-3-((Z)-(2-oxoindolin-3-ylidene)hydrazono)indolin-2-one] was run?
**A.** The IC50 was 12.1 ± 3.14 µM.

**Q.** And the IC50 [2]?
**A.** Its IC50 is 14.9 ± 1.26 µM.

**Q.** And the “RR (MDR1 selectivity)” value [2]?
**A.** The value was 0.81.

**Q.** Which IC50 [1] does the source give for O=C1Nc2ccccc2/C1=N/N=C1\C(=O)Nc2ccc([N+](=O)[O-])cc21 [Compound 9, (Z)-5-Nitro-3-((Z)-(2-oxoindolin-3-ylidene)hydrazono)indolin-2-one] here?
**A.** Its IC50 is 29.2 ± 2.81 µM.

**Q.** What about the IC50 [2] of the same molecule?
**A.** Its IC50 is 30.4 ± 6.75 µM.

**Q.** What about the “RR (MDR1 selectivity)” value [2] of the same molecule?
**A.** Its value is 0.96.

**Q.** Which results are given for O=C1Nc2ccccc2/C1=N/N=C1\C(=O)Nc2ccc(OC(F)(F)F)cc21 [Compound 10, (Z)-3-((Z)-(2-Oxoindolin-3-ylidene)hydrazono)-5-(trifluoromethoxy)indolin-2-one]?
**A.** IC50 [1]: 9.75 ± 0.11 µM; IC50 [2]: 5.67 ± 1.18 µM; RR (MDR1 selectivity) [2]: 1.72

**Q.** With O=C1/C(=N\N=C2/C(=O)N(c3ccccc3)c3ccccc32)c2ccccc2N1c1ccccc1 [Compound 11, (3Z,3′Z)-3,3′-(Hydrazine-1,2-diylidene)bis(1-phenylindolin-2-one)] as the molecule, how does the IC50 [1] read?
**A.** The IC50 was 25.6 ± 2.39 µM.

**Q.** What about the IC50 [2] of the same molecule?
**A.** Its IC50 is 22 ± 2.37 µM.

**Q.** What about the “RR (MDR1 selectivity)” value [2] of the same molecule?
**A.** Its value is 1.16.

**Q.** Which IC50 [1] does the source give for O=C1Nc2ccc(F)cc2/C1=N/N=C1\C(=O)N(c2ccccc2)c2ccccc21 [Compound 12, (Z)-5-Fluoro-3-((Z)-(2-oxo-1-phenylindolin-3-ylidene)hydrazono)indolin-2-one] here?
**A.** The IC50 was 10.2 ± 1.52 µM.

**Q.** And the IC50 [2]?
**A.** Its IC50 is 11.2 ± 0.61 µM.

**Q.** What about the “RR (MDR1 selectivity)” value [2] of the same molecule?
**A.** The value was 0.91.

**Q.** O=C1Nc2ccc(Cl)cc2/C1=N/N=C1\C(=O)N(c2ccccc2)c2ccccc21 [Compound 13, (Z)-5-Chloro-3-((Z)-(2-oxo-1-phenylindolin-3-ylidene)hydrazono)indolin-2-one] was tested. Which IC50 [1] did it give?
**A.** Its IC50 is 6.79 ± 0.63 µM.

**Q.** And the IC50 [2]?
**A.** Its IC50 is 6.07 ± 1.19 µM.

**Q.** And the “RR (MDR1 selectivity)” value [2]?
**A.** Its value is 1.12.

**Q.** Which IC50 [1] does the source give for O=C1Nc2ccc(Br)cc2/C1=N/N=C1\C(=O)N(c2ccccc2)c2ccccc21 [Compound 14, (Z)-5-Bromo-3-((Z)-(2-oxo-1-phenylindolin-3-ylidene)hydrazono)indolin-2-one] here?
**A.** The IC50 was 7.93 ± 2.11 µM.

**Q.** What about the IC50 [2] of the same molecule?
**A.** Its IC50 is 8.71 ± 0.27 µM.

**Q.** And the “RR (MDR1 selectivity)” value [2]?
**A.** Its value is 0.91.

**Q.** Which IC50 [1] does the source give for Cc1ccc2c(c1)/C(=N/N=C1\C(=O)N(c3ccccc3)c3ccccc31)C(=O)N2 [Compound 15, (Z)-5-Methyl-3-((Z)-(2-oxo-1-phenylindolin-3-ylidene)hydrazono)indolin-2-one] here?
**A.** Its IC50 is 8.37 ± 0.62 µM.

**Q.** What about the IC50 [2] of the same molecule?
**A.** Its IC50 is 8.06 ± 1.68 µM.

**Q.** What about the “RR (MDR1 selectivity)” value [2] of the same molecule?
**A.** Its value is 1.04.

**Q.** For O=C1Nc2ccc([N+](=O)[O-])cc2/C1=N/N=C1\C(=O)N(c2ccccc2)c2ccccc21 [Compound 16, (Z)-5-Nitro-3-((Z)-(2-oxo-1-phenylindolin-3-ylidene)hydrazono)indolin-2-one], which IC50 [1] is on record?
**A.** Its IC50 is 37.1 ± 4.05 µM.

**Q.** What about the IC50 [2] of the same molecule?
**A.** The IC50 was 48.6 ± 2.32 µM.

**Q.** And the “RR (MDR1 selectivity)” value [2]?
**A.** The value was 0.76.

**Q.** Which results are given for O=C1Nc2ccc(OC(F)(F)F)cc2/C1=N/N=C1\C(=O)N(c2ccccc2)c2ccccc21 [Compound 17, ((Z)-3-(Z)-(2-oxo-1-phenylindolin-3-ylidene)hydrazono)-5-(trifluoromethoxy)indolin-2-one]?
**A.** IC50 [1]: 7.67 ± 0.88 µM; IC50 [2]: 4.8 ± 0.12 µM; RR (MDR1 selectivity) [2]: 1.60

**Q.** Which IC50 [1] does the source give for O=C1Nc2ccc(F)cc2/C1=N/N=C1\C(=O)Nc2ccc(F)cc21 [Compound 18, (3Z,3′Z)-3,3′-(Hydrazine-1,2-diylidene)bis(5-fluoroindolin-2-one)] here?
**A.** The IC50 was 20.4 ± 4.62 µM.

**Q.** What about the IC50 [2] of the same molecule?
**A.** The IC50 was 16.5 ± 6.28 µM.

**Q.** What about the “RR (MDR1 selectivity)” value [2] of the same molecule?
**A.** Its value is 1.23.

**Q.** What does the source list for O=C1Nc2ccc(F)cc2/C1=N/N=C1\C(=O)Nc2ccc(Cl)cc21 [Compound 19, (Z)-5-Chloro-3-((Z)-(5-fluoro-2-oxoindolin-3-ylidene)hydrazono)indolin-2-one]?
**A.** IC50 [1]: 17.4 ± 4.41 µM; IC50 [2]: 11.3 ± 3.26 µM; RR (MDR1 selectivity) [2]: 1.54

**Q.** For O=C1Nc2ccc(F)cc2/C1=N/N=C1\C(=O)Nc2ccc(Br)cc21 [Compound 20, (Z)-5-Bromo-3-((Z)-(5-fluoro-2-oxoindolin-3-ylidene)hydrazono)indolin-2-one], which IC50 [1] is on record?
**A.** The IC50 was 15.4 ± 3.97 µM.

**Q.** What about the IC50 [2] of the same molecule?
**A.** Its IC50 is 18.6 ± 2.01 µM.

**Q.** What about the “RR (MDR1 selectivity)” value [2] of the same molecule?
**A.** Its value is 0.83.

**Q.** How did the IC50 [1] turn out when Cc1ccc2c(c1)/C(=N/N=C1\C(=O)Nc3ccc(F)cc31)C(=O)N2 [Compound 21, (Z)-5-Fluoro-3-((Z)-(5-methyl-2-oxoindolin-3-ylidene)hydrazono)indolin-2-one] was run?
**A.** Its IC50 is 18.9 ± 0.46 µM.

**Q.** What about the IC50 [2] of the same molecule?
**A.** The IC50 was 17.9 ± 0.82 µM.

**Q.** And the “RR (MDR1 selectivity)” value [2]?
**A.** The value was 1.06.

**Q.** Which IC50 [1] does the source give for O=C1Nc2ccc(F)cc2/C1=N/N=C1\C(=O)Nc2ccc([N+](=O)[O-])cc21 [Compound 22, (Z)-5-Fluoro-3-((Z)-(5-nitro-2-oxoindolin-3-ylidene)hydrazono)indolin-2-one] here?
**A.** The IC50 was 56 ± 1.5 µM.

**Q.** And the IC50 [2]?
**A.** Its IC50 is 38.6 ± 13.5 µM.

**Q.** And the “RR (MDR1 selectivity)” value [2]?
**A.** Its value is 1.45.

**Q.** Which IC50 [1] does the source give for O=C1Nc2ccc(F)cc2/C1=N/N=C1\C(=O)Nc2ccc(OC(F)(F)F)cc21 [Compound 23, (Z)-5-Fluoro-3-((Z)-(2-oxo-5-(trifluoromethoxy)indolin-3-ylidene)hydrazono)indolin-2-one] here?
**A.** Its IC50 is 15.2 ± 1.34 µM.

**Q.** And the IC50 [2]?
**A.** The IC50 was 11.6 ± 2.55 µM.

**Q.** What about the “RR (MDR1 selectivity)” value [2] of the same molecule?
**A.** The value was 1.31.
